Measured values: patent US11773078B2, “Furin inhibitors” (Glaxosmithkline Intellectual Property Development Limited, priority 2018, dated 2023)
Structures can show the parent of a compound that is named as a salt.

What was measured:
[1] = target: T1, furin (endogenous protease) in U20S cells (Homo sapiens, UniProt P09958); test: Furin cell-based assay (image-based, Golgi-targeted GFP with BMP10 furin/PCSK cleavage site); settings: 24-hour incubation, read-out: furin golgi cell pXC50 (converted);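 further: Read-out is mean GFP fluorescence of Golgi puncta per cell by high-content imaging, retained when furin inhibited, over an eleven-point 0.00017–10 µM series, four-parameter fit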
T1 construct: the endogenous protease cleaves GFP; endogenous in cells; host or cells: U2OS cells transduced with a BacMam reporter
T1 sequence (P09958 108-794): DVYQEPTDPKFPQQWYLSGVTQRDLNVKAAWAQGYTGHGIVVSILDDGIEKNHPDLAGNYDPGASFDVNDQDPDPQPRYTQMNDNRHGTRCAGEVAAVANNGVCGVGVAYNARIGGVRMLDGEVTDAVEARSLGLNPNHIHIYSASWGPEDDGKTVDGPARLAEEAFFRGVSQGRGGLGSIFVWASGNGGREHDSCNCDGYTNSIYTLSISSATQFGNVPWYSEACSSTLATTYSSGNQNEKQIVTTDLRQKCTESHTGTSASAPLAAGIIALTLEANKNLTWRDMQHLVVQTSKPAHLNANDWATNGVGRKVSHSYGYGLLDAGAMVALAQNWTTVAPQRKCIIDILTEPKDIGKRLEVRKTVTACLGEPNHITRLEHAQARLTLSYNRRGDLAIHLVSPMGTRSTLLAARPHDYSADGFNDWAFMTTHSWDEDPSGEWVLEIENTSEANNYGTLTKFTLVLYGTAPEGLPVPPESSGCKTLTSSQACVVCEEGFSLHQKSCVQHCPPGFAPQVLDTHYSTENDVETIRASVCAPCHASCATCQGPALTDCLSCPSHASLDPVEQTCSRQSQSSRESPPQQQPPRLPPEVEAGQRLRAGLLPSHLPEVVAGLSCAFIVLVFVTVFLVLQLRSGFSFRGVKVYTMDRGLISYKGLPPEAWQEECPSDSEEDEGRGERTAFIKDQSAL

[2] = target: T2, Furin (108-574-Tev-Flag-His) enzyme (Homo sapiens, UniProt P09958); test: Furin enzyme assay; format: biochemical
T2 construct: Furin (108-574-Tev-Flag-His) enzyme was expressed and purified from CHO cells; TEV cleavage site (C); FLAG (C); His (C); made in house; host or cells: CHO cells
T2 sequence (P09958 108-574): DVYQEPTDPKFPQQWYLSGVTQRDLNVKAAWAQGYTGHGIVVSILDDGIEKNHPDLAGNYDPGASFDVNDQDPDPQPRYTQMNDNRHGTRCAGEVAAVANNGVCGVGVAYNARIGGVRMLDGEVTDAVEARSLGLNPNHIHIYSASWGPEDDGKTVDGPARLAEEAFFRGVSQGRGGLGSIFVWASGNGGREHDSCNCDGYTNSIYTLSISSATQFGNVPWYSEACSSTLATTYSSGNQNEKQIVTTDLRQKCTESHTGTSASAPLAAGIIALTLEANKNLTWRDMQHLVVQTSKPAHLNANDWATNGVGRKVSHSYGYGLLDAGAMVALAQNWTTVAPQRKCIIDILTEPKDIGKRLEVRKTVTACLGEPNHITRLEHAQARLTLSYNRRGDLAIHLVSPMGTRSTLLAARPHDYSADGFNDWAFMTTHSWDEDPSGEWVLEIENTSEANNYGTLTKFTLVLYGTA
In short: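 Compounds ran as 11-point threefold dilutions (0.00017–10 μM final) against 40 pM furin, purified from CHO cells, for 2 h at room temperature. Buffer: 100 mM HEPES pH7.5 with 1 mM CaCl2 and 0.005% Triton X-100. Envision readout. Four-parameter curve gives pXC50.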

EC50 [1] [nM] | furin enzyme pIC50 [2] | IC50 ([2]; read-out: furin enzyme pIC50 (converted)) [nM] | Structure (SMILES)
5.01 | 9.1 |  | CC(=O)NCC1CCN(Cc2cc(Oc3cnc(N4CCN(CCC(N)=O)CC4)nc3)nc(-c3cc(Cl)cc(Cl)c3)c2)CC1 [Example 88, 3-(4-(5-((4-((4-(Acetamidomethyl)piperidin-1-yl)methyl)-6-(3,5-dichlorophenyl)pyridin-2-yl)oxy)pyrimidin-2-yl)piperazin-1-yl)propanamide]
50.1 | 8.3 |  | CC(=O)NCC1CCN(Cc2cc(Oc3cnc(N4CCN(CCS(C)(=O)=O)CC4)nc3)cc(-c3cc(Cl)cc(Cl)c3)c2)CC1 [Example 167, N-((1-((3′,5′-Dichloro-5-((2-(4-(2-(methylsulfonyl)ethyl)piperazin-1-yl)pyrimidin-5-yl)oxy)-[1,1′-biphenyl]-3-yl)methyl)piperidin-4-yl)methyl)acetamide]
7.94 | 9.5 |  | CS(=O)(=O)N[C@H]1[C@@H]2CCN(Cc3cc(Oc4cnc(N5CCN(CCC(=O)O)CC5)nc4)nc(-c4cc(Cl)cc(Cl)c4)c3)CC[C@@H]21 [Example 80, 3-(4-(5-((6-(3,5-dichlorophenyl)-4-(((1R,7S,8r)-8-(methylsulfonamido)-4-azabicyclo[5.1.0]octan-4-yl)methyl)pyridin-2-yl)oxy)pyrimidin-2-yl)piperazin-1-yl)propanoic acid]
50.1 | 8.7 |  | CC(=O)NCC1CCN(Cc2cc(Oc3cnc(N4CCN(CCC(=O)O)CC4)c(F)c3)nc(-c3cc(Cl)cc(Cl)c3)c2)CC1 [Example 266, 3-(4-(5-((4-((4-(acetamidomethyl)piperidin-1-yl)methyl)-6-(3,5-dichlorophenyl)pyridin-2-yl)oxy)-3-fluoropyridin-2-yl)piperazin-1-yl)propanoic acid]
63.1 | 9.1 |  | CNC(=O)OCC1CCN(Cc2cc(Oc3ccc(N4CCN(CCC(=O)O)CC4)nc3)nc(-c3cc(Cl)cc(Cl)c3)c2)CC1 [Example 77, 3-(4-(5-((6-(3,5-Dichlorophenyl)-4-((4-(((methylcarbamoyl)oxy)methyl)piperidin-1-yl)methyl)pyridin-2-yl)oxy)pyridin-2-yl)piperazin-1-yl)propanoic acid, 4 hydrochloride]
2 |  | 0.0316 | CNC(=O)NCC1CCN(Cc2cc(Oc3cnc(N4CCN(CCC(C)[S+](C)[O-])CC4)nc3)nc(-c3cc(Cl)cc(Cl)c3)c2)CC1 (stereo not shown) [Example 17, 1-((1-((2-(3,5-dichlorophenyl)-6-((2-(4-(3-(methylsulfinyl)butyl)piperazin-1-yl)pyrimidin-5-yl)oxy)pyridin-4-yl)methyl)piperidin-4-yl)methyl)-3-methylurea]
7.94 | 9.3 |  | O=C(O)CCN1CCN(c2ncc(Oc3cc(CN4CCC(CNC(=O)C5CC5)CC4)cc(-c4cc(Cl)cc(Cl)c4)n3)cn2)CC1 [Example 84, 3-(4-(5-((4-((4-(cyclopropanecarboxamidomethyl)piperidin-1-yl)methyl)-6-(3,5-dichlorophenyl)pyridin-2-yl)oxy)pyrimidin-2-yl)piperazin-1-yl)propanoic acid]
10 | 9.4 |  | O=C(O)CC1CCN(Cc2cc(Oc3cnc(N4CCN(CCC5(O)CC5)CC4)nc3)nc(-c3cc(Cl)cc(Cl)c3)c2)CC1 [Example 278, 2-(1-((2-(3,5-dichlorophenyl)-6-((2-(4-(2-(1-hydroxycyclopropyl)ethyl)piperazin-1-yl)pyrimidin-5-yl)oxy)pyridin-4-yl)methyl)piperidin-4-yl)acetic acid]
158 | 8.2 |  | NC(=O)OCCN1CCN(Cc2cc(Oc3cnc(N4CCN(CCC(=O)O)CC4)nc3)nc(-c3cc(Cl)cc(Cl)c3)c2)CC1 [Example 54, 3-(4-(5-((4-((4-(2-(Carbamoyloxy)ethyl)piperazin-1-yl)methyl)-6-(3,5-dichlorophenyl)pyridin-2-yl)oxy)pyrimidin-2-yl)piperazin-1-yl)propanoic acid, 5 hydrochloride]

Second part, the compound before the results:

Structure (SMILES) | EC50 [1] [nM] | furin enzyme pIC50 [2] | IC50 ([2]; read-out: furin enzyme pIC50 (converted)) [nM]
CNC(=O)NCC1CCN(Cc2cc(Oc3ccc(N4CCN(C[C@@H](C)O)CC4)nc3)nc(-c3cc(Cl)cc(Cl)c3)c2)CC1 [Example 309, (R)-1-((1-((2-(3,5-dichlorophenyl)-6-((6-(4-(2-hydroxypropyl)piperazin-1-yl)pyridin-3-yl)oxy)pyridin-4-yl)methyl)piperidin-4-yl)methyl)-3-methylurea] | 2.51 | 9.8 | 
CC(=O)NCC1CCN(Cc2cc(Oc3cnc(N4CCN(C(C)CO)CC4)cn3)nc(-c3cc(Cl)cc(Cl)c3)c2)CC1 (stereo not shown) [Example 393, N-((1-((2-(3,5-dichlorophenyl)-6-((5-(4-(1-hydroxypropan-2-yl)piperazin-1-yl)pyrazin-2-yl)oxy)pyridin-4-yl)methyl)piperidin-4-yl)methyl)acetamide] | 2.51 | 9.2 | 
CC(=O)NCC1CCN(Cc2cc(Oc3cnc(N4CCNCC4)c(F)c3)nc(-c3cc(Cl)cc(Cl)c3)c2)CC1 [Example 121, N-((1-((2-(3,5-dichlorophenyl)-6-((5-fluoro-6-(piperazin-1-yl)pyridin-3-yl)oxy)pyridin-4-yl)methyl)piperidin-4-yl)methyl)acetamide] | 31.6 | 8.6 | 
CNC(=O)CN1CCN(Cc2cc(Oc3ccc(N4CCNCC4)nc3)nc(-c3cc(Cl)cc(Cl)c3)c2)CC1 [Example 1, 2-(4-((2-(3,5-Dichlorophenyl)-6-((6-(piperazin-1-yl)pyridin-3-yl)oxy)pyridin-4-yl)methyl)piperazin-1-yl)-N-methylacetamide, 5 hydrochloride] | 1.58 | 8.3 | 
CN1C[C@@H]2C[C@H]1CN2c1ccc(Oc2cc(CN3CCC(CC(=O)O)CC3)cc(-c3cc(Cl)cc(Cl)c3)n2)nn1 [Example 357, 2-(1-((2-(3,5-dichlorophenyl)-6-((6-((1S,4S)-5-methyl-2,5-diazabicyclo[2.2.1]heptan-2-yl)pyridazin-3-yl)oxy)pyridin-4-yl)methyl)piperidin-4-yl)acetic acid] | 100 | 8.5 | 
CNC(=O)NCC1CCN(Cc2cc(Oc3cnc(N4CCN(CC(C)C(=O)O)CC4)nc3)cc(-c3cc(Cl)cc(Cl)c3)c2)CC1 (stereo not shown) [Example 292, 3-(4-(5-((3′,5′-dichloro-5-((4-((3-methylureido)methyl)piperidin-1-yl)methyl)-[1,1′-biphenyl]-3-yl)oxy)pyrimidin-2-yl)piperazin-1-yl)-2-methylpropanoic acid] | 50.1 | 9.4 | 
NS(=O)(=O)CCCN1CCN(c2ccc(Oc3cc(CN4CCC(CC(=O)O)CC4)cc(-c4cc(Cl)cc(Cl)c4)n3)cn2)CC1 [Example 252, 2-(1-((2-(3,5-dichlorophenyl)-6-((6-(4-(3-sulfamoylpropyl)piperazin-1-yl)pyridin-3-yl)oxy)pyridin-4-yl)methyl)piperidin-4-yl)acetic acid] | 31.6 | 8.5 | 
C[C@@H](O)CN1CCN(c2ccc(Oc3cc(CN4CCC(CC(=O)O)CC4)cc(-c4cc(Cl)cc(Cl)c4)n3)cn2)CC1 [Example 299, (R)-2-(1-((2-(3,5-dichlorophenyl)-6-((6-(4-(2-hydroxypropyl)piperazin-1-yl)pyridin-3-yl)oxy)pyridin-4-yl)methyl)piperidin-4-yl)acetic acid] | 31.6 | 8.5 | 
CN1CCN(c2ccc(Oc3cc(CN4CCC5(CC4)CNC(=O)OC5)cc(-c4cc(Cl)cc(Cl)c4)n3)cn2)CC1 [Example 141, 9-((2-(3,5-dichlorophenyl)-6-((6-(4-methylpiperazin-1-yl)pyridin-3-yl)oxy)pyridin-4-yl)methyl)-2-oxa-4,9-diazaspiro[5.5]undecan-3-one] | 5.01 | 8.6 | 
CC(=O)NCC1CCN(Cc2cc(Oc3ccc(N4CCN(CC5(CO)CC5)CC4)nc3)nc(-c3cc(Cl)cc(Cl)c3)c2)CC1 [Example 34, N-((1-((2-(3,5-Dichlorophenyl)-6-((6-(4-((1-(hydroxymethyl)cyclopropyl)methyl)piperazin-1-yl)pyridin-3-yl)oxy)pyridin-4-yl)methyl)piperidin-4-yl)methyl)acetamide] | 5.01 | 9.4 | 
CC(=O)NCC1CCN(Cc2cc(Oc3ccc(N4CCN(CCS(C)(=O)=O)CC4)nc3)cc(-c3cc(Cl)cc(Cl)c3)c2)CC1 [Example 293, N-((1-((3′,5′-dichloro-5-((6-(4-(2-(methylsulfonyl)ethyl)piper-1-yl)pyridin-3-yl)oxy)-[1,1′-biphenyl]-3-yl)methyl)piperidin-4-yl)methyl)acetamide] | 158 | 8.2 | 
CNC1CCN(c2ccc(Oc3cc(CNCCOC)cc(-c4cc(Cl)cc(Cl)c4)c3)cn2)CC1 [Example 97, 1-(5-((3′,5′-Dichloro-5-(((2-methoxyethyl)amino)methyl)-[1,1′-biphenyl]-3-yl)oxy)pyridin-2-yl)-N-methylpiperidin-4-amine] | 25.1 | 8.4 | 
CC(=O)NCC1(O)CCN(Cc2cc(Oc3ccc(N4CCNCC4)nc3)nc(-c3cc(Cl)cc(Cl)c3)c2)CC1 [Example 2, N-((1-((2-(3,5-Dichlorophenyl)-6-((6-(piperazin-1-yl)pyridine-3-yl)oxy)pyridin-4-yl)methyl)-4-hydroxypiperidin-4-yl)methyl)acetamide] | 39.8 | 8.8 | 
CS(=O)(=O)CCCN1CCN(c2ccc(Oc3cc(CN4CCC(CC(N)=O)CC4)cc(-c4cc(Cl)cc(Cl)c4)n3)cn2)CC1 [Example 264, 2-(1-((2-(3,5-dichlorophenyl)-6-((6-(4-(3-(methylsulfonyl)propyl)piperazin-1-yl)pyridin-3-yl)oxy)pyridin-4-yl)methyl)piperidin-4-yl)acetamide] | 3.98 | 8.6 | 
